Data reported in US8586620B2, “Substituted indole compounds having NOS inhibitory activity” (NeurAxon, Inc., priority 2005, dated 2013).
Where a name gives a salt, the structure may show the parent alone. Read-outs that look alike come from different tables or passages of the source.

Legend:
5-HT1B = 5-HT1B (Rattus norvegicus (Rat), UniProt P28564); assay: 5-HT1B binding assay (agonist radioligand), rat cerebral cortex
Description: 5-HT1D binding assays (agonist radioligand)were performed using bovine caudate membranes according to the methods of Heuring and Peroutka (J. Neurosci 1987, 7: 894-903). 5-HT1B (rat cerebral cortex) binding assays (agonist radioligand) were performed according to the method of Hoyer et. al. (Eur. J. Pharmacol. 1995, 118: 1-12). For the purpose of result analysis, the specific ligand binding to the receptors is defined as the difference between the total binding and the nonspecific binding as determined in the presence of an excess of unlabelled ligand. The results are expressed as a percent of control specific binding obtained in the presence of the test compounds. IC50 values (concentration causing a half-maximal inhibition of control specific binding) and Hill coefficients (nH) were determined by non-linear regression analysis of the competition curves using Hill equation curve fitting and the inhibition constants (Ki) were calculated from the Cheng Prusoff equation (Ki=IC50/(1+(L/KD)), where L=concentration of radioligand in the assay, and KD=affinity of the radioligand for the receptor).

[1] = target: human endothelial constitutive NOS (eNOS) (Homo sapiens (Human), UniProt P29474); assay: Human eNOS enzyme assay, radiometric;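 also: recombinant human eNOS expressed in baculovirus-infected Sf9 cells, activity read as [3H]L-arginine turned into [3H]L-citrulline, the product isolated on ion-exchange resin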
Description: (§2) In a radiometric method, NO synthase activity was determined by measuring the conversion of [^3H]L-arginine to [^3H]L-citrulline.
(§3) The total volume of the reaction mixture was 150 μL in every well. […] The reaction was stopped by adding 20 μL of ice-cold buffer containing 100 mM HEPES, 3 mM EGTA, 3 mM EDTA, pH=5.5. [^3H]L-citrulline was separated by DOWEX (ion-exchange resin DOWEX 50 W X 8-400, SIGMA) and the DOWEX was removed by spinning at 12,000 g for 10 min in the centrifuge. […] All assays were performed at least in duplicate. Standard deviations were 10% or less.

[2] = target: human neuronal constitutive NOS (nNOS) (Homo sapiens (Human), UniProt P29475); assay: Human nNOS enzyme assay, radiometric [3H]L-arginine to [3H]L-citrulline;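 also: recombinant human nNOS expressed in baculovirus-infected Sf9 cells, enzyme activity measured radiometrically as turnover of [3H]L-arginine into [3H]L-citrulline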
Description: as §2, §3

[3] = target: human inducible NOS (iNOS) (Homo sapiens (Human), UniProt P35228); assay: Human iNOS enzyme assay, radiometric; assay type: biochemical
Source text: Standard deviations were 10% or less.

hindpaw allodynia = assay: Experimental migraine model, inflammatory soup on dura, hindpaw allodynia
Rat nNOS = Rat nNOS (Rattus norvegicus (Rat), UniProt P29476); assay: Rat nNOS hemoglobin capture assay; assay type: biochemical; conditions: Table 2a
Source text: (§1) The NOS isoforms used in this example were recombinant enzymes expressed in E. coli. Rat nNOS was expressed and purified as described previously (Roman et al., Proc. Natl. Acad. Sci. USA 92:8428-8432, 1995). The bovine eNOS isoform was isolated as reported (Martasek et al., Biochem. Biophys. Res. Commun. 219:259-365, 1996) and murine macrophage iNOS was expressed and isolated according to the procedure of Hevel et al. (J. Biol. Chem. 266:22789-22791, 1991). IC50 values and percent inhibition of NOS by the compounds of the invention were determined under initial velocity measurement conditions with the hemoglobin capture assay as previously described (Hevel and Marletta, Methods Enzymol. 133:250-258, 1994). In this assay, nitric oxide reacts with oxyhemoglobin to yield methemoglobin, which was detected at 401 nm (e=19,700 M^−1 cm^−1) on a Perkin-Elmer Lamda 10 UV/vis spectrophotometer. The assays were performed using varying test compound concentrations. Assay mixtures for nNOS or eNOS contained […], 1.6 mM CaCl2, 11.6 mg/mL calmodulin, […], 6.5 mM BH4 and […] in 100 mM Hepes (pH 7.5). Assay mixtures for iNOS contained 10 mM of L-arginine, […], 6.5 mM BH4 and […] in 100 mM Hepes (pH 7.5). All assays were conducted in a final volume of 600 μL and were initiated with enzyme.

murine macrophage iNOS = murine macrophage iNOS (Mus musculus (Mouse), UniProt P29477); assay: Murine iNOS hemoglobin capture assay; assay type: biochemical; conditions: Table 2a; hemoglobin capture assay; read-out: Murine iNOS
Source text: as §1

bovine eNOS = bovine eNOS (Bos taurus (Bovine), UniProt P29473); assay: Bovine eNOS hemoglobin capture assay; assay type: biochemical; conditions: Table 2a; hemoglobin capture assay; read-out: Bovine eNOS
Source text: as §1

[4] = system: L5/L6 spinal nerve ligation; assay: Chung spinal nerve ligation (SNL) model of neuropathic pain; assay type: in vivo; conditions: rats; for tactile hyperthesia: L5/L6 spinal nerve ligation, FIGS. 20 and 22; for thermal hyperalgesia: one standard dose (10 mg/kg) injected IP, FIG. 19, 21
Description: (a) Chung Model of Injury-induced Neuropathic-like Pain: The experimental designs for the Chung Spinal Nerve Ligation SNL Model assay for neuropathic pain are depicted in FIG. 18. Nerve ligation injury was performed according to the method described by Kim and Chung (Kim and Chung, Pain 50:355-363, 1992). This technique produces signs of neuropathic dysesthesias, including tactile allodynia, thermal hyperalgesia, and guarding of the affected paw. Rats were anesthetized with halothane and the vertebrae over the L4 to S2 region were exposed. The L5 and L6 spinal nerves were exposed, carefully isolated, and tightly ligated with 4-0 silk suture distal to the DRG. After ensuring homeostatic stability, the wounds were sutured, and the animals allowed to recover in individual cages. Sham-operated rats were prepared in an identical fashion except that the L5/L6 spinal nerves were not ligated. […] After a period of recovery following the surgical intervention, rats show enhanced sensitivity to painful and normally non-painful stimuli.

migraine attack = conditions: open pilot study; cited from earlier work
[5] = read-out: eNOSh, Table I, human NOS, dihydrochloride or monohydrochloride salts
[6] = read-out: nNOSh, Table I, human NOS, dihydrochloride or monohydrochloride salts
[7] = Table I, human NOS, dihydrochloride or monohydrochloride salts, read-out: iNOSh
[8] = 6 mg/kg i.v. 10 minutes prior to IS

Chain of 5-HT1B (P28564 whole entry): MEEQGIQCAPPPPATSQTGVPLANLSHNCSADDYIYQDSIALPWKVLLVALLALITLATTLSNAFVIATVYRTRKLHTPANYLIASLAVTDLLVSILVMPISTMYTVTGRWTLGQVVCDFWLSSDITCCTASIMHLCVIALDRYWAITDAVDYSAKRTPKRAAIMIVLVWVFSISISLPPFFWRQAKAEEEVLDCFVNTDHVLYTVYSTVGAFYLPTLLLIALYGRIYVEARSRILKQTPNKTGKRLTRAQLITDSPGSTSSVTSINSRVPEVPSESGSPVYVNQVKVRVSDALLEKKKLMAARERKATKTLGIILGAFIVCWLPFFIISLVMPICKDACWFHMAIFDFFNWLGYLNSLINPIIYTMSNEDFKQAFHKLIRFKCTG

Structure (SMILES) | IC50 [1, 5] [µM] | e/n ([2]; Table I, ratio eNOSh/nNOSh) | IC50 [2, 6] [µM] | IC50 [3, 7] [µM] | further results
CN1CCC[C@H]1Cc1c[nH]c2ccc(NC(=N)c3cccs3)cc12 [Compound 105, (S)-N-(3-((1-methylpyrrolidin-2-yl)methyl)-1H-indol-5-yl)thiophene-2-carboximidamide] | 23 | 29 | 0.82 |  | IC50 (5-HT1B): 0.29 µM
CN1CCC(c2c[nH]c3ccc(NC(=N)c4cccs4)cc23)CC1 [Compound 43, N-(3-(1-methylpiperidin-4-yl)-1H-indol-5-yl)thiophene-2-carboximidamide] | 32.6 | 17 | 1.88 | 58 | 
CN1CC=C(c2c[nH]c3ccc(NC(=N)c4cccs4)cc23)CC1 [Compound 42, N-(3-(1-methyl-1,2,3,6-tetrahydropyridin-4-yl)-1H-indol-5-yl)thiophene-2-carboximidamide] | 51.1 |  | 0.92 | 20 | IC50 (5-HT1B): 0.16 µM; e/n [2]: 53; development of hindpaw allodynia (hindpaw allodynia; [8]): prevents the development of hindpaw allodynia
CN1CCC(c2c[nH]c3ccc(NC(=N)c4cccs4)cc23)C1 (stereo not drawn) [Compound 110, N-(3-(1-methylpyrrolidin-3-yl)-1H-indol-5-yl)thiophene-2-carboximidamide] | 39 | 90 | 0.43 |  | IC50 (5-HT1B): 0.49 µM
N=C(Nc1ccc2ccn(CCc3ccccc3)c2c1)c1cccs1 [Compound 27] |  |  |  |  | IC50 ([3]; Table 2b, read-out: Human iNOS): 320 µM; IC50 (Rat nNOS): 14.6 µM; IC50 (murine macrophage iNOS): 159 µM; IC50 (bovine eNOS): > 300 µM; IC50 ([1]; read-out: Human eNOS, Table 2b): > 100 µM; IC50 ([2]; read-out: Human nNOS, Table 2b): 12 µM
CN1CCCC1CCn1ccc2ccc(NC(=N)c3cccs3)cc21 (stereo not drawn) [32(+)] |  |  |  |  | IC50 ([3]; Table 2b, read-out: Human iNOS): 72.8 µM; tactile hyperthesia [4]: reversal of tactile hyperthesia; thermal hyperalgesia [4]: clear antihyperalgesic effect; IC50 ([1]; read-out: Human eNOS, Table 2b): 16 µM; IC50 ([2]; read-out: Human nNOS, Table 2b): 0.32 µM
CN1CC=C(c2c[nH]c3ccc(CNC(=N)c4cccs4)cc23)CC1 [Compound 51, N-((3-(1-methyl-1,2,3,6-tetrahydropyridin-4-yl)-1H-indol-5-yl)methyl)thiophene-2-carboximidamide] | 49.7 | 42 | 1.19 | 85 | 
CCN1CCC(c2c[nH]c3ccc(NC(=N)c4cccs4)cc23)CC1 [Compound 61, N-(3-(1-ethylpiperidin-4-yl)-1H-indol-5-yl)thiophene-2-carboximidamide] |  |  |  |  | melting point: 150 to 152 °C
CN(C)CCCc1c[nH]c2ccc(NC(=N)c3cccs3)cc12 [Compound 56, N-(3-(3-(dimethylamino)propyl)-1H-indol-5-yl)thiophene-2-carboximidamide] | 15.1 |  | 0.41 | 5.6 | 
CN1CCC[C@@H]1Cc1c[nH]c2ccc(NC(=N)c3cccs3)cc12 [Compound 97, (R)-N-(3-((1-Methylpyrrolidin-2-yl)methyl)-1H-indol-5-yl)thiophene-2-carboximidamide] | 34.5 | 41 | 0.84 |  | IC50 (5-HT1B): 0.31 µM; development of hindpaw allodynia (hindpaw allodynia; [8]): prevents the development of hindpaw allodynia
N=C(Nc1ccc2[nH]ccc2c1)c1cccs1 [Compound 5] |  |  |  |  | IC50 (Rat nNOS): 57.6 µM; IC50 (bovine eNOS): 643 µM
CN1CCCC1CCn1ccc2ccc(NC(=N)c3cccs3)cc21 (stereo not drawn) [Compound 32] |  |  |  |  | IC50 (Rat nNOS): 4.1 µM; IC50 (murine macrophage iNOS): 67.2 µM; IC50 (bovine eNOS): 6.2 µM
CNS(=O)(=O)Cc1ccc2[nH]cc(CCN(C)C)c2c1 [Sumatriptan, reference compound] |  |  |  |  | development of hindpaw allodynia (hindpaw allodynia; 1 mg/kg s.c. 5 minutes prior to soup, two hours after IS): prevention of the development of hindpaw allodynia
N=C(Nc1ccc2[nH]cc(CCCN3CCOCC3)c2c1)c1cccs1 [Compound 181, N-(3-(3-morpholinopropyl)-1H-indol-5-yl)thiophene-2-carboximidamide] | 31 | 9.9 | 2 | 9.9 | 
CN1CCC(c2c[nH]c3ccc(NC(=N)c4ccco4)cc23)C1 (stereo not drawn) [Compound 111, N-(3-(1-methylpyrrolidin-3-yl)-1H-indol-5-yl)furan-2-carboximidamide] | 33.8 |  | 1.24 |  | IC50 (5-HT1B): 1.1 µM
CN1CCC[C@H]1CCc1c[nH]c2ccc(NC(=N)c3cccs3)cc12 (as salt: hydrochloride) [Compound 147, (R)-N-(3-(2-(1-Methylpyrrolidin-2-yl)ethyl)-1H-indol-5-yl)thiophene-2-carboximidamide] |  |  |  |  | melting point: 212 °C
CN1CCCC1CCn1ccc2ccc(NC(=N)c3cccs3)cc21 (stereo not drawn) [32(−)] |  |  |  |  | IC50 ([3]; Table 2b, read-out: Human iNOS): 72.6 µM; tactile hyperthesia [4]: reversal of tactile hyperthesia; thermal hyperalgesia [4]: clear antihyperalgesic effect; IC50 ([1]; read-out: Human eNOS, Table 2b): 24 µM; IC50 ([2]; read-out: Human nNOS, Table 2b): 0.2 µM
CN1CC=C(c2c[nH]c3ccc(NC(=N)c4ccco4)cc23)CC1 [Compound 46, N-(3-(1-methyl-1,2,3,6-tetrahydropyridin-4-yl)-1H-indol-5-yl)furan-2-carboximidamide] | 54 | 31 | 1.78 | 58 | 
CCSC(=N)Nc1ccc2[nH]ccc2c1 [Compound 4] |  |  |  |  | IC50 (Rat nNOS): 29.6 µM; IC50 (murine macrophage iNOS): 46.9 µM; IC50 (bovine eNOS): 164 µM
CN1CCC(c2c[nH]c3ccc(NC(=N)c4ccco4)cc23)CC1 [Compound 47, N-(3-(1-methylpiperidin-4-yl)-1H-indol-5-yl)furan-2-carboximidamide] | 97.4 |  | 2.24 | 55 | 
C/C1=C2/[N-][C@H]([C@H](CC(N)=O)[C@@]2(C)CCC(=O)NC[C@@H](C)OP(=O)([O-])O[C@H]2[C@@H](O)[C@@H](n3cnc4cc(C)c(C)cc43)O[C@@H]2CO)[C@]2(C)N=C(/C(C)=C3N=C(/C=C4N=C1[C@@H](CCC(N)=O)C\4(C)C)[C@@H](CCC(N)=O)[C@]\3(C)CC(N)=O)[C@@H](CCC(N)=O)[C@]2(C)CC(N)=O.[Co+3].[OH-] [hydroxycobalamin] |  |  |  |  | patients with reduction in the frequency of migraine attack of 50% (migraine attack): 53%
N=C(Nc1ccc2ccn(CCN3CCCCC3)c2c1)c1cccs1 [Compound 37] |  |  |  |  | IC50 ([3]; Table 2b, read-out: Human iNOS): 21 µM; IC50 ([1]; read-out: Human eNOS, Table 2b): 3.8 µM; IC50 ([2]; read-out: Human nNOS, Table 2b): 0.49 µM
CN(C)C1CC=C(c2c[nH]c3ccc(NC(=N)c4cccs4)cc23)CC1 (stereo not drawn) [Compound 114, N-(3-(4-(dimethylamino)cyclohex-1-enyl)-1H-indol-5-yl)thiophene-2-carboximidamide] | 51.4 | 17.1 | 3 |  | 
